The record followed here is US20050119301A1, “Treatment of restenosis” (priority 2001, published 2005).

For series [1], the system named is rat isolated aortic rings. The experiment in a line: Vasodilatory capacity in noradrenaline pre-constricted aortic rings and mechanism of action (Protocol 2a/2b). The note with it: for vasodilatory response: effect of high KCl levels: KCl 40 mM; for vasodilatory response: effect of nitro-L-arginine (NOLA): NOLA 10 μM; for vasodilatory response: effect of ODQ: ODQ 10 μM; for vasodilatory response: effect of removal of the endothelium: denuded vs intact endothelium; for vasodilatory response: effect of indomethacin: indomethacin 10 μM. The method, then:
Male Sprague-Dawley rats (250±50 g) were gassed with 80% CO2 and 20% O2 until killed. The thoracic aorta was excised and quickly placed in ice-cold Krebs modified solution composed of NaCl […], […] 4.7 mM, MgSO4 7H2O 1.17 mM, NaHCO3 25 mM, KH2PO4 1.18 mM, CaCl2 2.5 mM, glucose 11 mM and EDTA 0.03 mM. It was then trimmed of fat and connective tissue and cut into 2-3 mm wide rings. Each ring was mounted on two parallel stainless steel hooks in a single water-jacketed 3 ml organ bath containing modified Krebs solution maintained at 37° C. and bubbled with 95% O2 plus 5% CO2. The lower hook was attached to a movable support leg and the upper hook to an FTO3 force transducer (Grass Scientific Instruments, Mitutoyo, Japan) for isometric recordings. Changes in force were amplified (Quadbridge amplifier, Scientific Concepts Inc., Victoria, Australia) and recorded on a MacLab 8E data acquisition system (Adinstruments Pty Ltd., NSW, Australia) linked to an Apple computer (Apple Computer Inc, Cupertina, Calif.). Rings were set at an initial tension of 2 g and allowed to equilibrate for 30 minutes after which time they were re-set to 2 g tension before the commencement of each experimental protocol.
A full concentration response to noradrenaline was obtained. From this the concentration producing a submaximal contraction of approximately 80% was selected (0.03-0.3 μM). The ring was then constricted with this submaximal concentration and allowed to plateau before full concentration-relaxation curves were obtained to β-estradiol and Cpds. 5, 7, 8 and 12 and the vehicle DMSO (at equi-volume). Only one compound was studied with any one ring from any one animal.
Full relaxation curves were obtained to Cpds. 5, 7, 8 and 12 and β-estradiol in the absence and presence of the endothelium (rings were denuded of endothelium by gentle rotation of the lumen against a rough surface), the nitric oxide synthase inhibitor nitro-L-arginine (NOLA 10 μM; with the exception of Cpd. 8, due to limited supply of the compound), KCl 40 mM (to inhibit endothelium derived hyperpolarising factor), the cyclo-oxygenase inhibitor indomethacin (10 μM) and the soluble guanylate cyclase inhibitor 1H-[1,2,4]oxadiazolo[4,3-a]quinoxalin-1-one (ODQ; 10 μM). Only one compound with only one intervention was tested on any one ring from any one animal.
Contractile responses are expressed in g tension (mean+standard error of the mean). Dilatory responses are expressed as a percentage of the contractile force generated by the pre-constricting agent used. Individual concentration-response curves for noradrenaline and acetylcholine±the interventions used were fitted to a logistic equation of the form […] where E is the response, M is the maximum response and K is the concentration eliciting 50% of the maximum response (ie neg log EC50).

The test system of series [2] is Human umbilical vein endothelial cells. The series can be described thus: Endothelial cell proliferation assay. It counts as cell-based. The note with it: Cpd. 8 1-10 mg/ml; for endothelial cell proliferation (in words): 3 days, two donors, Cpd. 5, 7, 12 0.01-10 mg/ml; for toxicity to endothelial cells: Cpd. 12 0.01-10 mg/ml. On the procedure: Human umbilical vein endothelial cells between passage 1 and 3 were used. Cells were grown in gelatin coated flasks in medium 199 with Earle's Salts supplemented with 20% foetal calf serum, 25 mg/ml endothelial cell growth supplement and 25 mg/ml heparin. Cells from two different donors were used.
5×10^3 cells in […] growth medium were plated into gelatin coated microtitre wells. The test compounds were added at plating. The cells were then incubated for 3 days and cell number determined by a calorimetric assay (CellTiter96 Aqueous assay, Promega). Results were compared to a standard curve performed in each experiment. Two different endothelial cell isolates were used and the assays were performed on two different days. The effect of isoflavone derivatives on the proliferation of human umbilical vein endothelial cells are shown for donor No. 1 (FIG. 15) and donor No. 2 (FIG. 16).

Series [3] is described as follows: Peroxyl radical scavenging, AAPH-induced oxidation of linoleate. It counts as biochemical. On the set-up: dose or concentration left out as unconfirmed. The method, then: Peroxyl radicals are natural side-products of a number of enzymes, including lipoxygenases and cyclo-oxygenase. Peroxyl radicals were generated by the thermo-labile azo-initiator AAPH. AAPH-induced oxidation of linoleate was performed as described previously (Pryor et al., 1993), except that a lower linoleate concentration was used and SDS was omitted. An aliquot of a linoleate stock solution was added to PBS at 37° C. to give a final concentration of […]. Oxidation was initiated by the addition of AAPH (87.5 mM final concentration) in the absence and presence of either 10 mM of Cpd. 7, Cpd. 8 or Cpd. 12 or 500 mM ascorbate (positive control). Formation of linoleate hydroperoxide was monitored by UV 234 nm using a Perkin Elmer's UV/Vis Lambda 40 spectrophotometer. The test was performed twice as single analysis. An appropriate concentration of alcohol (ethanol and isopropanol; 0.13%-0.2% v/v) was included in the respective control samples.

Series [4] has as its system horseradish peroxidase (HRP) plus hydrogen peroxide (H2O2). The series can be described thus: Peroxidase-induced (HRP/H2O2) oxidation of linoleate. It counts as biochemical, horse radish. Set-up: dose or concentration left out as unconfirmed. The source says: The test is similar to the peroxyl scavenging described in section 4.5 above, except that horseradish peroxidase (HRP) plus hydrogen peroxide (H2O2), were used instead of the peroxyl radical generator. Increased level of heme is considered as a potential risk factor for atherosclerosis, and heme-containing proteins may be involved in the oxidative modification of LDL. In the presence of H2O2, heme proteins give rise to a powerful oxidant (referred to as compound I) that can oxidatively modify lipids, including those in LDL. We therefore tested the ability of the isoflavone to inhibit such lipid oxidation using horse radish peroxidase as the model heme protein. HRP/H2O2-induced oxidation of linoleate was as described principally by Witting et al (1997) by replacing LDL with linoleate. Linoleate stock was added to PBS at 37° C. to give a final concentration of 300 mM and oxidized by HRP (40 U/mL)/H2O2 (2 mM) in the absence and presence of either 10 mM of Cpd. 7, Cpd. 8 or Cpd. 12, or 25 mM BHT (positive control). Formation of linoleate hydroperoxide was monitored by UV 234 nm using the Perkin Elmer's UV/Vis Lambda 40 spectrophotometer. The test was performed twice as single analysis. An appropriate concentration of alcohol (ethanol and isopropanol; 0.13% -0.2% v/v) was included in the respective control samples.

In the case of `O=C1c2ccc(O)cc2OCC1c1ccc(O)cc1` (stereo not shown) [Cpd. 5], in series [1], the “vasodilatory response: effect of high KCl levels” value was “inhibited”, the “vasodilatory response: effect of nitro-L-arginine (NOLA)” value was “inhibited”, the “vasodilatory response: effect of ODQ” value is “inhibited” and the “vasodilatory response: effect of removal of the endothelium” value is listed as “inhibited”. Further, the “vasodilatory response: effect of indomethacin” value in series [1] is listed as “did not influence”. Also, the “endothelial cell proliferation (in words)” value in series [2] is on record as “no apparent effect on endothelial cell proliferation”.
Take `Oc1ccc(C2COc3cc(O)ccc3C2O)cc1` (stereo not shown) [Cpd. 7]: the “inhibition of AAPH-induced oxidation of linoleic acid, 234 nm absorbency (in words)” value (“inhibition … 234 nm absorbency (in words)” for short) in series [3] is “As for peroxyl radicals, neither Cpd. 7 nor Cpd. 8 were able to inhibit”. In addition, in series [1], the “vasodilatory response: effect of high KCl levels” value is reported as “inhibited”, the “vasodilatory response: effect of nitro-L-arginine (NOLA)” value is on record as “trend towards inhibition of these responses by NOLA but this was not statistically significant”, the “vasodilatory response: effect of ODQ” value is given as “inhibited” and the “vasodilatory response: effect of removal of the endothelium” value is “inhibited”. Further, the “vasodilatory response: effect of indomethacin” value in series [1] is on record as “did not influence”. In addition, the “inhibition of linoleic acid oxidation by HRP/H2O2 compound I (in words)” value (from here on “inhibition of linoleic acid oxidation”) in series [4] is recorded as “able to inhibit linoleic acid oxidation by compound I as effectively as 25 mM BHT”. The “endothelial cell proliferation (in words)” value in series [2] is “no appreciable antiproliferative action”.
As for `Oc1ccc(C2COc3cc(O)ccc3C2O)cc1` (stereo not shown) [Cpd. 8], the “inhibition … 234 nm absorbency (in words)” value in series [3] is “As for peroxyl radicals, neither Cpd. 7 nor Cpd. 8 were able to inhibit”. For the same molecule, in series [1], the “vasodilatory response: effect of high KCl levels” value was “inhibited”, the “vasodilatory response: effect of ODQ” value is listed as “but not by ODQ”, the “vasodilatory response: effect of removal of the endothelium” value was “inhibited” and the “vasodilatory response: effect of indomethacin” value is reported as “potentiated”. In series [4], the “inhibition of linoleic acid oxidation” value is recorded as “able to inhibit linoleic acid oxidation by compound I as effectively as 25 mM BHT”. In series [2], the “endothelial cell proliferation (in words)” value is given as “inhibited cellular proliferation” and the “toxicity to endothelial cells” value is “did not cause toxicity”.
On to `Oc1ccc(C2=Cc3ccc(O)cc3OC2)cc1` [Cpd. 12], for which the “inhibition … 234 nm absorbency (in words)” value in series [3] was “significantly inhibited the time-dependent increase in 234 nm absorbency”. Also, in series [1], the “vasodilatory response: effect of high KCl levels” value is recorded as “inhibited” and the “vasodilatory response: effect of removal of the endothelium” value is on record as “inhibited”. Besides, in series [4], the “inhibition of linoleic acid oxidation” value was “inhibitory activity of Cpd. 7 and Cpd. 8 was greater than of an equimolar amount of Cpd. 12”. Besides, in series [2], the “endothelial cell proliferation (in words)” value was “inhibited cellular proliferation” and the “toxicity to endothelial cells” value is “did not cause toxicity”.
